Data set [1] in a line: Mouse PK study (i.v. and p.o.). Format: in vivo. The settings on record: plasma, male CD1 mice; for half-life: read-out: T1/2 (hr) i.v. (converted); for Vd: read-out: Vss; for bioavailability: 5 mg/kg p.o. vs 1 mg/kg i.v. The protocol:
Test compounds were dosed to male CD1 mice at 5 mg/kg by oral gavage (p.o.) or 1 mg/kg by intravenous injection (i.v.). Blood samples were taken at 0.083, 0.25, 0.5, 1.0, 3.0, 6.0 and 24 hours post i.v. dosing and at 0.25, 0.5, 1.0, 3.0, 6.0 and 24 hours post p.o. dosing. The plasma concentration of compounds were determined by HPLC.

The target of the next data set is T1, α1β2γ2 GABAA receptor (Homo sapiens, UniProt P14867+P47870).
T1 construct: expressed in transfected cells
The data set is described as follows: Patch clamp electrophysiology assay of recombinant α1β2γ2 GABAA receptors (potentiation of 2 μM GABA-evoked Cl- current). The settings on record: HEK293T cells stably transfected with α1β2γ2 GABAA; whole cell, 2 μM GABA, -80 mV. The class given is cell-based. The essentials:
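Whole-cell voltage clamp at −80 mV on HEK293T cells stably expressing human α1β2γ2 GABAA. Compounds applied for 3 min, then 2 μM GABA (EC10–EC20) applied to assess potentiation of Cl− current. Ascending 0.003–10 μM concentrations tested on each cell, 180 s apart, with Rm >500 MΩ, Ra <15 MΩ and leak <100 pA as cell criteria.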

In a further data set the test system is PTZ-treated mice. Put plainly: Acute PTZ (pentylenetetrazol-induced seizure) assay. The settings on record: 3 mg/kg oral gavage 60 min prior to PTZ 120 mg/kg s.c.; observed 30 min. The class given is in vivo, Male CD-1 mice. The protocol:
The anticonvulsant effect of test compounds were assessed in the pentylenetetazol-induced seizure assay in mice similar to methods described in Giardina & Gasior (2009) Curr Protoc Pharmacol., Chapter 5. Male CD-1 mice were housed in groups of five under controlled conditions (temperature of 22±2° C. and 12:12 light-dark cycle, lights on at 8:00 am) and water and food were available ad libitum. The mice were housed for 1 week prior to behavioral testing, at which time they weighed 25-35 g. Pentylenetetrazol (PTZ, Sigma) was dissolved in sterile 0.9% saline at a concentration of 12 mg/mL concentration for subcutaneous administration. Test compounds were formulated and administered via oral gavage at 60 minutes prior to PTZ injection. AU solutions were made fresh and were given in a volume of 10 ml/kg body weight.
Mice were acclimated to the test room for at least 30 min before compound administration. Mice were randomized into at least four test groups (vehicle and at least three doses of the test compound) with 10 mice per group. […] Following the drug pretreatment time, the mice were injected s.c. with PTZ (120 mg/kg). Immediately following the PTZ injection, mice were individually placed into observation chambers (25×15×15 cm) and a three-channel timer was started. Each mouse was continuously observed for 30 min and the following behaviors were recorded by observers blinded to the treatments: 1) latency to clonic convulsions that persist for 3 sec and followed by an absence of righting reflex 2) latency to tonic convulsions, characterized by the rigid extension of all four limbs that exceeded a 90 degree angle with the body 3) latency to death 4) number of clonic and tonic convulsions. Data are presented as mean±S.E.M and one-way analysis of variance with Dunnetfs or Bonferroni's post-hoc test was used to detect significant differences in latency and number between the vehicle and dose group, p values<0.05 were regarded as statistically significant.

[2] abbreviates: iv, 1 mg/kg i.v., read-out: AUClast (hr*ng/mL) i.v.
[3] abbreviates: po, 5 mg/kg p.o., read-out: AUClast (hr*ng/mL) p.o.

Like-named read-outs stand apart in the source and are kept apart here.

T1 sequence (P14867 28-456): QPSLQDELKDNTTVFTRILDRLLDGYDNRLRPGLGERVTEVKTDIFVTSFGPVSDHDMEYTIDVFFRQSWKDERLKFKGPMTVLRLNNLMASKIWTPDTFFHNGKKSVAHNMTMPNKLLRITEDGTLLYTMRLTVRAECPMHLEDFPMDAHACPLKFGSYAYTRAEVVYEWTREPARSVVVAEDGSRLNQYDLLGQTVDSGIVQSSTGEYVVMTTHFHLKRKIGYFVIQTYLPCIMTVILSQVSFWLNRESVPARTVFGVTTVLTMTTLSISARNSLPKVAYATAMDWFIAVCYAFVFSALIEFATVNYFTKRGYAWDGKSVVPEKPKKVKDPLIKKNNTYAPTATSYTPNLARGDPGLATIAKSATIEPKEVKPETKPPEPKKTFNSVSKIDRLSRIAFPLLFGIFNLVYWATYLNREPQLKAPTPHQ
T1 sequence (P47870 25-512 limits assumed): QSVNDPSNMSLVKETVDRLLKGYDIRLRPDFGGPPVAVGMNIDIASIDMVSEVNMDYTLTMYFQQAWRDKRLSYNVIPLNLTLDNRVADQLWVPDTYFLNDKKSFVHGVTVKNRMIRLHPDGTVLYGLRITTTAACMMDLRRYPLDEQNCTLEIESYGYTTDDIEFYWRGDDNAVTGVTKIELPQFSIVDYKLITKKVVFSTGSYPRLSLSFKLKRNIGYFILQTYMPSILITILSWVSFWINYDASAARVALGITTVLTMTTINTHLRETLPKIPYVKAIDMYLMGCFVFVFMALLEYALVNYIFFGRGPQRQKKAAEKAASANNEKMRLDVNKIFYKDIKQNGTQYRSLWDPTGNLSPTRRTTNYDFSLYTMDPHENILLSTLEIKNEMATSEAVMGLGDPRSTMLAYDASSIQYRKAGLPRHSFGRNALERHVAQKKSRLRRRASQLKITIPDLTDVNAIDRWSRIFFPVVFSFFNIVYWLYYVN
T1 sequence (P18507 40-475 partner): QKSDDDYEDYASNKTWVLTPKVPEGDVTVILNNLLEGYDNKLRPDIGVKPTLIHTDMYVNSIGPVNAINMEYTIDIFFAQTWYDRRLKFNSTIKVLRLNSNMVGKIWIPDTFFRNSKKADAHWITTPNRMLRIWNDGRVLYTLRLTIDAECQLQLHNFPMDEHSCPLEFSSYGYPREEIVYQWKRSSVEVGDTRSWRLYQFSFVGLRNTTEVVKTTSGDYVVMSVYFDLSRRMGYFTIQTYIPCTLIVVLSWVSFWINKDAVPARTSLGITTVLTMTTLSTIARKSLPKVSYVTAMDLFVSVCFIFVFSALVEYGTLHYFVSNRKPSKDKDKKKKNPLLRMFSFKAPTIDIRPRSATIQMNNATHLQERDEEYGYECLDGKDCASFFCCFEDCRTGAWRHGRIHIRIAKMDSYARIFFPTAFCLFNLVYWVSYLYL

Usually Cmax stands for the highest concentration seen after dosing. By Tmax is commonly meant the time from dosing to the highest level. Usually bioavailability stands for the share of a dose that reaches the circulation, judged against a reference dose that is usually intravenous. Broadly, the EC50 is the concentration giving half of the maximal effect. Regarding `Cn1nccc1-n1nnn(CC(=O)[C@H]2CC[C@H]3[C@@H]4CC[C@@H]5C[C@](C)(O)CC[C@@H]5[C@H]4CC[C@]23C)c1=O` [Example 26, 1-(2-((3R,5R,8R,9R,10S,13S,14S,17S)-3-hydroxy-3,13-dimethylhexadecahydro-1H-cyclopenta[a]phenanthren-17-yl)-2-oxoethyl)-4-(1-methyl-1H-pyrazol-5-yl)-1,4-dihydro-5H-tetrazol-5-one], in data set [1] (iv, 1 mg/kg i.v.), the clearance is 15.7 mL/min/kg, the half-life is 1.39 h and the Vd came out at 1.75 L/kg. Further, the AUC(0-t) in data set [1] (setting [2]) is 1010 ng·h/mL. Moreover, in data set [1] (po, 5 mg/kg p.o.), the Cmax worked out at 827 ng/mL and the Tmax was 1 h. The bioavailability in data set [1] (po) came to 77.1%. Moreover, in data set [1] (setting [3]), the AUC(0-t) came out at 3910 ng·h/mL. Besides, at α1β2γ2 GABAA receptor, the EC50 worked out at 64 nM. Also, in the data set on PTZ-treated mice, the “Clonic Seizure Latency (sec) (Mean)” value stood at 1547.8 ± 139.2 s, the “Clonic Seizure Number (Mean)” value stood at 0.3 ± 0.2, the “Mortality (%)” value came to 0.0% and the “Onset of death (sec) (Mean)” value is 1800 + 0.0 sec. Also, in the data set with PTZ-treated mice, the “Tonic Seizure Latency (sec) (Mean)” value was 1800 + 0.0 sec and the “Tonic Seizure Number (Mean)” value is 0.0 + 0.0.
For `Cn1nnn(CC(=O)[C@H]2CC[C@H]3[C@@H]4CC[C@@H]5C[C@](C)(O)CC[C@@H]5[C@H]4CC[C@]23C)c1=O` [Example 2, 1-(2-((3R,5R,8R,9R,10S,13S,14S,17S)-3-hydroxy-3,13-dimethylhexadecahydro-1H-cyclopenta[a]phenanthren-17-yl)-2-oxoethyl)-4-methyl-1,4-dihydro-5H-tetrazol-5-one], in data set [1] (iv, 1 mg/kg i.v.), the clearance was 10.7 mL/min/kg, the half-life was 1.46 h and the Vd came to 1.16 L/kg. Besides, the AUC(0-t) in data set [1] (setting [2]) stood at 1480 ng·h/mL. Moreover, in data set [1] (po, 5 mg/kg p.o.), the Cmax was determined as 1380 ng/mL and the Tmax was 1 h. Also, the bioavailability in data set [1] (po) came out at 66.3%. Moreover, the AUC(0-t) in data set [1] (setting [3]) worked out at 4900 ng·h/mL. Besides, at α1β2γ2 GABAA receptor, the 50% effective concentration (EC50) worked out at 110 nM. Further, in the data set on PTZ-treated mice, the “Clonic Seizure Latency (sec) (Mean)” value was 1085.4 ± 184.6 s, the “Clonic Seizure Number (Mean)” value worked out at 0.7 ± 0.2, the “Mortality (%)” value is recorded as 0.0% and the “Onset of death (sec) (Mean)” value is recorded as 1800 + 0.0 sec. Further, in the data set with PTZ-treated mice, the “Tonic Seizure Latency (sec) (Mean)” value is listed as 1800 + 0.0 sec and the “Tonic Seizure Number (Mean)” value is 0.0 + 0.0.

The values are drawn from patent US20220089636A1, “TETRAZOLONE SUBSTITUTED STEROIDS AND USE THEREOF” (Beijing Xuanyi PharmaSciences Co., Ltd., priority 2019, published 2022).
